# Measured values reported in patent US8791102B2, “Acetanilide sphingosine-1-phosphate receptor antagonists” (Exelixis, Inc., priority 2008, dated 2014).
# Biological target: T1, human S1P1 receptors (Homo sapiens, UniProt P21453)
# T1 construct: host or cells: HEK293
# Experiment: S1P1R antagonist assay (fluorescent membrane potential dye, cAMP readout)
# Type: cell-based
# Details: HEK293 cells expressing human S1P1 receptors and CNG channel; 500 nM NECA; S1P1R agonist 10 nM; 90 minutes; read-out: EC50 or IC50 value
# T1 sequence (P21453 whole entry): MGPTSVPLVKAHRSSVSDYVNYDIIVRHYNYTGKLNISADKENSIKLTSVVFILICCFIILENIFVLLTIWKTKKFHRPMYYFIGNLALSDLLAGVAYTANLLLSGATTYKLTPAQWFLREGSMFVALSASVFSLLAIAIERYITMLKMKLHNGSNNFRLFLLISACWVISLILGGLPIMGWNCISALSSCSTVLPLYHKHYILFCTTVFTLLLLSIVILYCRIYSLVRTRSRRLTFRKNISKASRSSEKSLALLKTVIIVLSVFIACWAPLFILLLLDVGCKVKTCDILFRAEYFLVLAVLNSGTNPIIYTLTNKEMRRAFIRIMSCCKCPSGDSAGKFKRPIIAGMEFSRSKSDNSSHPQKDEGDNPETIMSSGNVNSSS
row,SMILES,IC50 [nM]
1,"COc1ccccc1CCC(=O)NC(COCc1ccccc1)C(=O)Nc1ccc(Oc2ccccc2)cc1 (stereo not shown) [Compound 394, N-(2-oxo-1-{[(phenylmethyl)oxy]methyl}-2-{[4-(phenyloxy)phenyl]amino}ethyl)-3-(2-methoxyphenyl)propanamide]",> 1000
2,"O=C(NC(COCc1ccccc1)C(=O)Nc1ccc(Oc2ccccc2)cc1)c1nc2ccccc2nc1O (stereo not shown) [Compound 395, 3-hydroxy-N-(2-oxo-1-{[(phenylmethyl)oxy]methyl}-2-{[4-(phenyloxy)phenyl]amino}ethyl)quinoxaline-2-carboxamide]",> 1000
3,"CC(=O)c1ccc(C(=O)NC(COCc2ccccc2)C(=O)Nc2ccc(Oc3ccccc3)cc2)cc1 (stereo not shown) [Compound 396, 4-acetyl-N-(2-oxo-1-{[(phenylmethyl)oxy]methyl}-2-{[4-(phenyloxy)phenyl]amino}ethyl)benzamide]",> 1000
4,"COC(=O)c1ccc(C(=O)NC(COCc2ccccc2)C(=O)Nc2ccc(Oc3ccccc3)cc2)cc1 (stereo not shown) [Compound 397, methyl 4-{[(2-oxo-1-{[(phenylmethyl)oxy]methyl}-2-{[4-(phenyloxy)phenyl]amino}ethyl)amino]carbonyl}benzoate]",300 to 1000
5,"O=C(NC(COCc1ccccc1)C(=O)Nc1ccc(Oc2ccccc2)cc1)c1cc(F)cc(C(F)(F)F)c1 (stereo not shown) [Compound 398, 3-fluoro-N-(2-oxo-1-{[(phenylmethyl)oxy]methyl}-2-{[4-(phenyloxy)phenyl]amino}ethyl)-5-(trifluoromethyl)benzamide]",> 1000
6,"O=C(NC(COCc1ccccc1)C(=O)Nc1ccc(Oc2ccccc2)cc1)c1ccc(OC(F)F)cc1 (stereo not shown) [Compound 399, 4-[(difluoromethyl)oxy]-N-(2-oxo-1-{[(phenylmethyl)oxy]methyl}-2-{[4-(phenyloxy)phenyl]amino}ethyl)benzamide]",> 1000
7,"Cc1ccc(C(=O)NC(COCc2ccccc2)C(=O)Nc2ccc(Oc3ccccc3)cc2)cc1F (stereo not shown) [Compound 400, 3-fluoro-4-methyl-N-(2-oxo-1-{[(phenylmethyl)oxy]methyl}-2-{[4-(phenyloxy)phenyl]amino}ethyl)benzamide]",> 1000
8,"Cc1ccoc1C(=O)NC(COCc1ccccc1)C(=O)Nc1ccc(Oc2ccccc2)cc1 (stereo not shown) [Compound 401, 3-methyl-N-(2-oxo-1{[(phenylmethyl)oxy]methyl}-2-{[4-(phenyloxy)phenyl]amino}ethyl)furan-2-carboxamide]",> 1000
9,"O=C(NC(COCc1ccccc1)C(=O)Nc1ccc(Oc2ccccc2)cc1)C1CCC1 (stereo not shown) [Compound 402, N-(2-oxo-1-{[(phenylmethyl)oxy]methyl}-2-{[4-(phenyloxy)phenyl]amino}ethyl)cyclobutanecarboxamide]",> 1000
10,"O=C(CCc1cccs1)NC(COCc1ccccc1)C(=O)Nc1ccc(Oc2ccccc2)cc1 (stereo not shown) [Compound 403, N-(2-oxo-1-{[(phenylmethyl)oxy]methyl}-2-{[4-(phenyloxy)phenyl]amino}ethyl)-3-(thiophen-2-yl)propanamide]",300 to 1000
